Reference: patent US11365203B2, “Fluorescent dye and preparation method and use thereof” (Fluorescence Diagnosis (shanghai) Biotech Company Ltd., priority 2016, dated 2022)

Assays:
Format in all cases: physicochemical
[1] = Fluorescence emission spectra of molecular rotors in glycerin and methanol; settings: for Maximum Emission Wavelength: 1×10^−5 M in glycerin and methanol, excited at maximum excitation wavelength of each dye; for Fluorescence Intensity Ratios in Glycerol/Methanol: 1×10^−5 M, glycerol vs methanol solution
Protocol: The fluorescent dyes (molecular rotors) prepared in Examples 1-68 were separately dissolved in dimethyl sulfoxide to prepare respectively a mother liquor having a concentration of 1×10^−2 M, and each of the mother liquors was added individually to glycerin and methanol, and mixed uniformly, thereby solutions of a final concentration of 1×10^−5 M were prepared individually. According to the different fluorescent dyes, the fluorescence emission spectra of the fluorescent dyes were detected with the maximum excitation wavelengths of respective fluorescent dyes successively under the same conditions.

[2] = Fluorescence emission in ethylene glycol-glycerol mixed solutions of different viscosities; settings: 1×10^−5 M, 16.4-946.0 cp; for Emission wavelength: excited at 480 nm; for Viscosity response of fluorescence intensity: log intensity vs log viscosity linear
Protocol: Molecular Rotors 1, 2, 3, 22, 57, and 63 were added to ethylene glycol-glycerol mixed solutions having viscosities of 16.4 cp, 29.8 cp, 64.5 cp, 143.5 cp, 377.0 cp, and 946.0 cp to prepare a solution with a final concentration of 1×10^−5 M. The solution was excited at 480 nm. The fluorescence emission spectra at different viscosities were shown in FIGS. 1, 4, 7, 10, 13, and 16. Emission wavelengths of the molecular rotors were 555 nm, 590 nm, 610 nm, 570 nm, 559 nm, and 675 nm, respectively.

[3] = Fluorescence emission intensity in dichloromethane and methanol (polarity response); settings: 1×10^−5 M; dichloromethane vs methanol; 25° C.
Protocol: Molecular Rotors 1, 2, 3, 22, 57, 63 were added to dichloromethane and methanol respectively to prepare a solution with a final concentration of 1×10^−5 M. Then, the solution was excited individually by excitation wavelengths of 480 nm, 480 nm and 500 nm at 25° C. to detect their fluorescence emission intensities in two different polar solvents.

Maximum Emission Wavelength [1] | Fluorescence Intensity Ratios in Glycerol/Methanol [1] | Emission wavelength [2] | Viscosity response of fluorescence intensity [2] | Polarity response of fluorescence intensity [3] | Molecule
590 nm | 1183 | 590 nm | sensitive to viscosity | insensitive to the polarity change | 2-[2-cyano-2-(2-benzoxazole)-vinyl]-5-didecylamino-thieno[3,2,b]thiophene [Molecular Rotor 2]
555 nm | 790 | 555 nm | sensitive to viscosity | insensitive to the polarity change | CN(C)c1cc2sc(/C=C(\C#N)C(=O)OC(C)(C)C)cc2s1 [Molecular Rotor 1, 2-(2-cyano-2-tert-butyl formatevinyl)-5-dimethylamino-thieno[3,2,b]thiophene]
610 nm | 1455 | 610 nm | sensitive to viscosity | insensitive to the polarity change | CN(CCO)c1cc2sc(/C=C(\C#N)c3nc4ccccc4s3)cc2s1 [Molecular Rotor 3, 2-[2-cyano-2-(1,3-benzothiazol-2-yl)-vinyl]-5-(N-methyl-N-hydroxyethyl)-thieno[3,2,b]thiophene]
570 nm | 989 | 570 nm | sensitive to viscosity | insensitive to the polarity change | CN(C)c1ccc2cc(/C=C(\C#N)C(=O)OC(C)(C)C)sc2c1 [Molecular Rotor 22]
562 nm | 466 | – | – | – | COCCNC(=O)/C(C#N)=C/c1cc2cc3cc(N4CCOCC4)sc3cc2s1 [Molecular Rotor 55]
675 nm | 516 | 675 nm | sensitive to viscosity | insensitive to the polarity change | CN(C)c1cc2c(s1)c1sc(/C=C(\C#N)C(=O)OC(C)(C)C)cc1n2C [Molecular Rotor 63]
645 nm | 591 | – | – | – | CN(C)c1cc2c(s1)-c1sc(/C=C(\C#N)C(=O)OC(C)(C)C)cc1C2(C)C [Molecular Rotor 65]
670 nm | 623 | – | – | – | CN(C)c1cc2c(s1)-c1sc(/C=C(\C#N)c3nc4ccccc4o3)cc1C2(C)C [Molecular Rotor 66]
690 nm | 789 | – | – | – | CN(CCO)c1cc2c(s1)-c1sc(/C=C(\C#N)c3nc4ccccc4s3)cc1C2(C)C [Molecular Rotor 67]
648 nm | 953 | – | – | – | CN(CCO)c1cc2c(s1)-c1sc(/C=C(\C#N)C(=O)O)cc1C2(C)C [Molecular Rotor 68]

Molecule | Maximum Emission Wavelength [1] | Fluorescence Intensity Ratios in Glycerol/Methanol [1] | Emission wavelength [2] | Viscosity response of fluorescence intensity [2] | Polarity response of fluorescence intensity [3]
CN(C)c1cc2c(s1)-c1sc(C=C(C#N)C#N)cc1[Si]2(C)C [Molecular Rotor 56] | 655 nm | 591 | – | – | –
CN(CCO)c1cc2c(s1)-c1sc(/C=C(\C#N)C(=O)OC(C)(C)C)cc1[Si]2(C)C [Molecular Rotor 57] | 659 nm | 884 | 559 nm | sensitive to viscosity | insensitive to the polarity change
C[Si]1(C)c2cc(/C=C(\C#N)C(=O)O)sc2-c2sc(N(CCO)CCO)cc21 [Molecular Rotor 58] | 656 nm | 683 | – | – | –
CNc1cc2c(s1)-c1sc(/C=C(\C#N)C(=O)OC(C)(C)C)cc1[Si]21CCC1 [Molecular Rotor 60] | 637 nm | 812 | – | – | –
CN(CCC#N)c1cc2c(s1)-c1sc(/C=C(\C#N)c3nc4ccccc4o3)cc1[Si]21CCC1 [Molecular Rotor 61] | 691 nm | 816 | – | – | –
CN(CCO)c1cc2c(s1)-c1sc(/C=C(\C#N)c3nc4ccccc4s3)cc1[Si]21CCC1 [Molecular Rotor 62] | 715 nm | 759 | – | – | –
